Source: patent US7829524B2, “Antimicrobial peptides” (Novozymes Adenium Biotech A/S, priority 2003, dated 2010)
Where two headings read alike, the source gives them in different places.

Tested on: E. coli TOP10
Assay type: cell-based
Conditions: end point OD450, 14 hours
Procedure: A range of synthetic antimicrobial polypeptides were expressed in E. coli TOP10 (Invitrogen) using arabinose as inducer, as disclosed in Example 1 of International patent application WO 00/73433 (with minor modifications). […] Briefly, fresh overnight cultures grown in RM medium containing 0.2% glucose and ampicillin (100 μg/ml) were diluted 300-fold into 150 microliter of RM containing 0.2% glycerol and ampicillin (100 μg/ml) and different concentrations of arabinose (0, 0.01% or 0.1%) in a microtiter plate and incubated at 37 degrees Celsius with vigorous shaking. The growth curve was monitored by measuring OD450 using a Bioscreen C Microbiology reader (Thermo Electron Corporation) at intervals of 30 minutes for 14 hours (see Invitrogen protocol of the pBAD/gill A, B and C vectors catalogue nos. V450-01 for buffer and media composition). The percentage of growth inhibition was calculated as the end point OD measurement of each sample divided by the end point OD measurement obtained from cells containing the control vector and multiplied by 100. The formula is the following: [formula] where “blank OD” corresponds to the OD of an empty well.

Row | Sequence | Growth inhibition using 0.1% arabinose (%) (Table 5) | further results
1 | GLLRRLRKKIGRKFKKIAR (Synthetic antimicrobial peptide) [SEQ ID NO: 68] |  | Growth inhibition using 0.01% arabinose (%) (Table 6): 91%; Growth inhibition using 0.1% arabinose (%) (Table 6): 100%
2 | GLLRRIIGKKIGKKFKKCGQVIKAIRILVP (GLLRRLGKKIGKKFKKCGQVIKAIRILVP; Synthetic antimicrobial peptide) [SEQ ID NO: 54] | 89 | 
3 | GLFRRFRRKIGKKLKKFGQKIKPLRKLVP (Synthetic antimicrobial peptide) [SEQ ID NO: 20] | 97 | 
4 | GLFRRLRKKIGKKLKKIGQLIKAIRILVP (Synthetic antimicrobial peptide) [SEQ ID NO: 23] | 97 | 
5 | GLLRRFGKKIGKKFKKYGQKIKNLRILVP (Synthetic antimicrobial peptide) [SEQ ID NO: 24] | 92 | 
6 | GLLKRFRGKIGKKLKKYGQLIKAIRILVP (Synthetic antimicrobial peptide) [SEQ ID NO: 22] | 90 | 
7 | GRLRRFRKKIGKKLKKIGQMIKHIRILVP (Synthetic antimicrobial peptide) [SEQ ID NO: 30] | 95 | 
8 | GLFRRIRRKIGKKFKKFGQVIKPLRKLVP (Synthetic antimicrobial peptide) [SEQ ID NO: 52] | 95 | 
9 | GLLRRLRKKIGKKLKKIGQKIKPIRKLVP (Synthetic antimicrobial peptide) [SEQ ID NO: 56] | 94 | 
10 | GLFRRLGRKIGKKLKKIGQVIKHIRILVP (Synthetic antimicrobial peptide) [SEQ ID NO: 36] | 95 | 
11 | GLFRRLRKKIGKKFKKIAR (Synthetic antimicrobial peptide) [SEQ ID NO: 69] |  | Growth inhibition using 0.01% arabinose (%) (Table 6): 86%; Growth inhibition using 0.1% arabinose (%) (Table 6): 99%
12 | GLFRRFGKKIGKKLKKIGQVIKALRILVP (Synthetic antimicrobial peptide) [SEQ ID NO: 39] | 95 | 
13 | GLLRRFRKKIGEKFKKFGQKIKNIRILVP (Synthetic antimicrobial peptide) [SEQ ID NO: 55] | 79 | 
14 | GRFKRLRKKIGKKFKKIGQKIKDIRKLIVP (GRFKRLRKKIGKKFKKIGQKIKDIRKLVP; Synthetic antimicrobial peptide) [SEQ ID NO: 51] | 97 | 
15 | GLFRRLGKKIGKKIKKFGQVIKHIRILVP (GLFRRLGKKIGKKLKKFGQVIKHIRILVP; Synthetic antimicrobial peptide) [SEQ ID NO: 34] | 92 | 
16 | GLLRRLRRKIGKKFKKIGQVIKHLRKLVP (Synthetic antimicrobial peptide) [SEQ ID NO: 32] | 97 | 
17 | GLFRRLKRKIGRKFKKIAR (Synthetic antimicrobial peptide) [SEQ ID NO: 60] |  | Growth inhibition using 0.01% arabinose (%) (Table 6): 85%; Growth inhibition using 0.1% arabinose (%) (Table 6): 99%
18 | GLFRRLRGKIGKKLKKIGQKIKAIRILVP (Synthetic antimicrobial peptide) [SEQ ID NO: 33] | 91 | 
19 | GRFRRFRKKIGKKFKKFGQMIKALRILVP (Synthetic antimicrobial peptide) [SEQ ID NO: 29] | 95 | 
20 | GRLRRLGKIUGEKLKKFGQMIKHIRILVP (GRLRRLGKKIGEKLKKFGQMIKHIRILVP; Synthetic antimicrobial peptide) [SEQ ID NO: 53] | 84 | 
21 | GLLRRLGKKIGKKFKKFGQVIKALRILVP (Synthetic antimicrobial peptide) [SEQ ID NO: 35] | 95 | 

Row | Sequence | Growth inhibition using 0.1% arabinose (%) (Table 5) | further results
22 | GRIRRLRRKIRKKLKKYGQKIKAIRKIVP (GRLRRLRRKIRKKLKKYGQKIKAIRKLVP; Synthetic antimicrobial peptide) [SEQ ID NO: 27] | 96 | 
23 | GLFRRFWKKIGRKLKKIGQKIKPLQILVP (Synthetic antimicrobial peptide) [SEQ ID NO: 47] | 79 | 
24 | GLLKRLRKKIGKKLKKIGQMIKHIRILVP (Synthetic antimicrobial peptide) [SEQ ID NO: 44] | 93 | 
25 | GLLRRFGRKIGKKFKKFGPKIKILRKLVP (GLLRRFGRKIGKKFKKFGPKIKHLRKLVP; Synthetic antimicrobial peptide) [SEQ ID NO: 19] | 91 | 
26 | GLVRRFRRKIGKKLKKIGQIIKAIRKLVP (Synthetic antimicrobial peptide) [SEQ ID NO: 31] | 96 | 
27 | GLLRRLRRKIGKKLKKFGQKIKHIRILVP (Synthetic antimicrobial peptide) [SEQ ID NO: 15] |  | Growth inhibition using 0.01% arabinose (%) (Table 4): 96%; Growth inhibition using 0.1% arabinose (%) (Table 4): 100%
28 | GLLKRLGRKIGKKFKKIAR (Synthetic antimicrobial peptide) [SEQ ID NO: 61] |  | Growth inhibition using 0.01% arabinose (%) (Table 6): 89%; Growth inhibition using 0.1% arabinose (%) (Table 6): 98%
29 | GLLRRFRKKIGKKLKKYGQKIKHLRILVP (Synthetic antimicrobial peptide) [SEQ ID NO: 57] | 95 | 
30 | GRFRRFRKKIGGKLKKIGQVIKDIRILVP (Synthetic antimicrobial peptide) [SEQ ID NO: 28] | 95 | 
31 | GLLRRLRKKIGKKLKKITR (Synthetic antimicrobial peptide) [SEQ ID NO: 63] |  | Growth inhibition using 0.01% arabinose (%) (Table 6): 95%; Growth inhibition using 0.1% arabinose (%) (Table 6): 99%
32 | GLLRRFGRKIGKKFKKFGPKIKHLRKLVP (Synthetic antimicrobial peptide) [SEQ ID NO: 26] | 92 | 
33 | GLLRRLRRKIGGKLKKFGQKIKPLRKLVP (Synthetic antimicrobial peptide) [SEQ ID NO: 6] |  | Growth inhibition using 0.01% arabinose (%) (Table 4): 92%; Growth inhibition using 0.1% arabinose (%) (Table 4): 100%
34 | GLFKRLRKKIGKKLKKFGQKIKPLRKLVP (Synthetic antimicrobial peptide) [SEQ ID NO: 18] | 94 | 
35 | GRLRRLWRKIGRKLKKYGQVIKHLRILVP (Synthetic antimicrobial peptide) [SEQ ID NO: 17] |  | Growth inhibition using 0.01% arabinose (%) (Table 4): 94%; Growth inhibition using 0.1% arabinose (%) (Table 4): 100%
36 | GLLRRFRKKIGGKLKKYGQIIKHLRILVP (Synthetic antimicrobial peptide) [SEQ ID NO: 5] |  | Growth inhibition using 0.01% arabinose (%) (Table 4): 94%; Growth inhibition using 0.1% arabinose (%) (Table 4): 100%
37 | GLFRRLRKKIGKKLKKIAR (Synthetic antimicrobial peptide) [SEQ ID NO: 64] |  | Growth inhibition using 0.01% arabinose (%) (Table 6): 92%; Growth inhibition using 0.1% arabinose (%) (Table 6): 99%
38 | GLFRRLKRKIGKKLKKIAR (Synthetic antimicrobial peptide) [SEQ ID NO: 65] |  | Growth inhibition using 0.01% arabinose (%) (Table 6): 91%; Growth inhibition using 0.1% arabinose (%) (Table 6): 99%
39 | GLLRRFRBEIGKKLKKYGQKIKHLRKLVP (GLLRRFREKIGKKLKKYGQKIKHLRKLVP; Synthetic antimicrobial peptide) [SEQ ID NO: 45] | 79 | 
40 | GLLKRLRKKIGKKLKKIGPKIKHIRKLVP (Synthetic antimicrobial peptide) [SEQ ID NO: 10] |  | Growth inhibition using 0.01% arabinose (%) (Table 4): 93%; Growth inhibition using 0.1% arabinose (%) (Table 4): 100%
41 | GLFRRFGKKIGKKIIKKIGQKIKPIHKLVP (GLFRRFGKKIGKKLKKIGQKIKPIHKLVP; Synthetic antimicrobial peptide) [SEQ ID NO: 43] | 76 | 
